Assay results taken from PubChem BioAssay (NCI).
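Method: 48-hour compound exposure of cells in 96-well plates, five concentrations, linear interpolation of endpoints. At the GI50, growth is halved. TGI marks complete inhibition of growth.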

Assays:
Test in all cases: NCI tumour cell line growth inhibition, 48 h
SK-MEL-5 melanoma = tested on: SK-MEL-5 melanoma
K-562 leukemia = tested on: K-562 leukemia
HOP-62 NSCLC = tested on: HOP-62 NSCLC
M14 melanoma = tested on: M14 melanoma
SK-MEL-28 melanoma = tested on: SK-MEL-28 melanoma
TK-10 renal = tested on: TK-10 renal
MALME-3M melanoma = tested on: MALME-3M melanoma
ACHN renal = tested on: ACHN renal
SR leukemia = tested on: SR leukemia
T-47D breast = tested on: T-47D breast

Structure (SMILES) | TGI (SK-MEL-5 melanoma) [µM] | TGI (K-562 leukemia) [µM] | TGI (HOP-62 NSCLC) [µM] | TGI (M14 melanoma) [µM] | TGI (SK-MEL-28 melanoma) [µM] | TGI (TK-10 renal) [µM] | TGI (MALME-3M melanoma) [µM] | TGI (ACHN renal) [µM] | TGI (SR leukemia) [µM] | GI50 (SK-MEL-5 melanoma) [µM] | GI50 (SR leukemia) [µM] | GI50 (K-562 leukemia) [µM] | GI50 (HOP-62 NSCLC) [µM] | GI50 (M14 melanoma) [µM] | GI50 (SK-MEL-28 melanoma) [µM] | GI50 (TK-10 renal) [µM] | GI50 (MALME-3M melanoma) [µM] | GI50 (ACHN renal) [µM] | TGI (T-47D breast) [µM]
CC1=NN(c2ccccc2)C(=O)C12[C@H](c1ccccc1)C2(C#N)C#N (some centres undefined) | 14.3 | 6.12 | 31.1 | 3.14 | 9.6 | 25 | 11.6 | 21.5 | – | – | – | – | – | – | – | – | – | – | –
O=C(c1ccccc1)c1nnn(Cc2ccccc2Cn2nnc(C(=O)c3ccccc3)c2C(=O)c2ccccc2)c1C(=O)c1ccccc1 | > 100 | > 100 | > 100 | > 100 | > 100 | > 100 | > 100 | > 100 | > 100 | – | – | – | – | – | – | – | – | – | –
Cc1nc(NS(=O)(=O)c2ccc(NCN3C(=O)c4ccccc4C3=O)cc2)oc1C | > 100 | > 100 | > 100 | > 100 | > 100 | > 100 | > 100 | > 100 | > 100 | > 100 | > 100 | > 100 | > 100 | > 100 | > 100 | > 100 | > 100 | > 100 | –
O=C1CC(c2cccc(Cl)c2)Oc2ccccc21 (centres undefined) | 37.6 | 6.4 | 32.6 | 36 | 42.2 | – | – | 31.7 | – | – | – | – | – | – | – | – | – | – | 91.7
CCC1CCCCN1CC(C(C)=O)C(c1ccccc1)c1c(O)c2ccccc2oc1=O (centres undefined) | > 100 | > 100 | > 100 | > 100 | > 100 | > 100 | > 100 | > 100 | > 100 | – | – | – | – | – | – | – | – | – | –
C=CCC12CC(=O)CCC1c1ccc(OC)cc1C2=O (centres undefined) | > 100 | > 100 | > 100 | > 100 | > 100 | > 100 | > 100 | > 100 | > 100 | – | – | – | – | – | – | – | – | – | –
CCCCCCCCCCCNC=O | 92 | 86.1 | > 100 | > 100 | > 100 | > 100 | > 100 | > 100 | – | – | – | – | – | – | – | – | – | – | > 100
O=C1OCC2=C1C(c1cccc(C(F)(F)F)c1)c1cc3c(cc1N2CCO)OCCO3 (centres undefined) | 6.97 | > 33.3 | > 33.3 | > 33.3 | > 33.3 | > 33.3 | > 33.3 | > 33.3 | > 33.3 | 0.997 | 1.04 | 0.881 | 1.31 | 0.967 | 1.71 | > 33.3 | 2.86 | 2.83 | –
CC(/C=C/C(=O)c1sc(C(N)=S)nc1C)=C\c1ccccc1 | > 100 | > 100 | > 100 | > 100 | > 100 | > 100 | > 100 | > 100 | 98 | – | – | – | – | – | – | – | – | – | –
CC(C)=Cc1cc(CCC/C(C)=C/Cc2c(O)cc(C)c(C(=O)O)c2O)co1 | > 100 | > 100 | > 100 | > 100 | > 100 | > 100 | – | > 100 | – | – | – | – | – | – | – | – | – | – | > 100
